Experimental findings from patent publication US12091399B2, “Phenyltetrazole derivatives as plasma kallikrein inhibitors” (Boehringer Ingelheim International GmbH, priority 2018, dated 2024) are described below.

Square brackets hold non-standard residues; d marks the D form. Peptide text beside a SMILES is read from it. * marks the point of attachment. pNA = O=[N+]([O-])c1ccc(N*)cc1; Cbz = O=C(OCc1ccccc1)*

What all share (format): biochemical
Experiment [1] addresses Human FXIIa (Homo sapiens (Human), UniProt P00748). Kind of experiment: Inhibition of FXIIa (Ki). As to conditions: substrate KM, enzyme FXIIa. As for the experimental part:
(§1) The ability of compounds of formula (I) to inhibit plasma kallikrein (PKK), Factor XIIa (FXIIa), Factor XIa (FXIa), Factor Xa (FXa), Factor IIa (alpha-thrombin; FIIa), plasmin, trypsin, tissue kallikrein 1 (TK1), Factor Vila (FVIIa), or FVIIa complexed with Tissue Factor, phospholipids and CaCl2) (FVIIa/TF/PL/CaCl2) was determined using the following biochemical assays in assay buffer (100 mM Tris, 150 mM NaCL, adjusted to a pH of 7.8 with HCl, and containing 0.1% (w/v) BSA and 0.05% (v/v) Tween20) in the presence of 1% (v/v) DMSO:
Human FXIIa (47.5 nM or 1.1 U/mL; Enzyme Research Laboratories) was incubated at 24° C. with 0.5 mM chromogenic Substrate S2302 (Chromogenix) and various concentrations of the test compound in assay buffer. Measurements were performed in a kinetic interval every 2nd minute for 16 min using a Spectramax M5 (Molecular Devices) measuring the optical absorbance at 405 nm.
(§2) The pIC50 values were then fitted using a four-parametric fitting procedure using GraphPad Prism (version 6; GraphPad Software, Inc.). Respective Ki values were obtained by correction of the IC50 values for the respective KM value of the used substrate (see Table A for the obtained KM values of the used substrates) using the following formula: […]

The target of experiment [2] is Human FXa (Homo sapiens (Human), UniProt P00742). Kind of experiment: Inhibition of FXa (Ki). As to conditions: substrate KM, enzyme FXa. As for the experimental part:
as §1
Human FXa (0.86 nM or 0.01 U/mL; Enzyme Research Laboratories) was incubated at 24° C. with 0.5 mM chromogenic Substrate S2765 (Chromogenix) and various concentrations of the test compound in assay buffer. Measurements were performed in a kinetic interval every 2nd minute for 16 min using a Spectramax M5 (Molecular Devices) measuring the optical absorbance at 405 nm.
as §2

Experiment [3] deals with Human FIIa (Homo sapiens (Human), UniProt P00734). The experiment in a line: Inhibition of FIIa (Ki). The conditions noted are these: substrate KM, enzyme FIIa. As for the experimental part:
as §1
Human FIIa (44.6 nM or 5 U/mL; Enzyme Research Laboratories) was incubated at 24° C. with 0.5 mM chromogenic Substrate S2238 (Chromogenix) and various concentrations of the test compound in assay buffer. Measurements were performed in a kinetic interval every 2nd minute for 16 min using a Spectramax M5 (Molecular Devices) measuring the optical absorbance at 405 nm.
as §2

Human FXa, sequence (P00742 235-488): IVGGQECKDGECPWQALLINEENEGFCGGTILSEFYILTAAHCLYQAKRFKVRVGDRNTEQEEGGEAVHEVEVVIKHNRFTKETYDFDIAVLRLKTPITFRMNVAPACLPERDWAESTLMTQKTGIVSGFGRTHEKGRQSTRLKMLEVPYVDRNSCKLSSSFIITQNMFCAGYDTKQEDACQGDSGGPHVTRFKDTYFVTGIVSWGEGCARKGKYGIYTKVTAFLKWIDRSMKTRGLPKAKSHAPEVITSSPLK
Human FXa, sequence (P00742 41-179 partner): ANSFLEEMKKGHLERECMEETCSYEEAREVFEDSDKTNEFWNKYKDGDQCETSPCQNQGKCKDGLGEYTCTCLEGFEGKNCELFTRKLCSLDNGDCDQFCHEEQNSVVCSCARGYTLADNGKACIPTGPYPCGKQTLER
Human FXIIa, sequence (P00748 373-615): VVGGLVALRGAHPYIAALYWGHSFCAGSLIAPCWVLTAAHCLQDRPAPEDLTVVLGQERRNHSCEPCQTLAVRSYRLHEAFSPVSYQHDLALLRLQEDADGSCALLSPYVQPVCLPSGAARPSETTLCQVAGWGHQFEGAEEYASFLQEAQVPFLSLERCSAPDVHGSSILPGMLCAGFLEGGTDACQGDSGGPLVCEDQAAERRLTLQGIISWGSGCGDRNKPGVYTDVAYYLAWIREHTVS
Human FXIIa, sequence (P00748 20-372 partner): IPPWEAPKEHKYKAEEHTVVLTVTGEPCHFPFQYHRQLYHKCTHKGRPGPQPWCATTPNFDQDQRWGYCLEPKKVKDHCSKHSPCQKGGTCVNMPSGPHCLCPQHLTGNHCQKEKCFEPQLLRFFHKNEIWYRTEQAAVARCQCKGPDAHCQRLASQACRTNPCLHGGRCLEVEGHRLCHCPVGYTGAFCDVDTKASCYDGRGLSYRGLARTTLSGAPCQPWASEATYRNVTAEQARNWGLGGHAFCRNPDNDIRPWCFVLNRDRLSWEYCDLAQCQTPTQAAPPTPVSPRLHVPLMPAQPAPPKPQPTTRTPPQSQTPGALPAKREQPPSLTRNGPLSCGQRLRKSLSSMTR

As to `N=C(N)NCCC[C@H](NC(=O)[C@H](Cc1ccccc1)NC(=O)[C@H]1CCCN1)C(=O)Nc1ccc([N+](=O)[O-])cc1` [Example S2302] (H-[dP]-Phe-Arg-pNA), the Km – broadly, the substrate concentration at which the rate is half of its maximum – in experiment [1] stood at 200 µM.

Regarding `NC(N)=NCCC[C@H](NC(=O)CNC(=O)[C@@H](CCCN=C(N)N)NC(=O)OCc1ccccc1)C(=O)Nc1ccc([N+](=O)[O-])cc1` [Example S2765] (Cbz-[dR]-Gly-Arg-pNA), in experiment [2], the Km turned out to be 1310 µM.

Take `NC(N)=NCCC[C@H](NC(=O)[C@@H]1CCCCN1C(=O)[C@H](N)Cc1ccccc1)C(=O)Nc1ccc([N+](=O)[O-])cc1` [Example S2238]: in experiment [3], the Km stood at 1250 µM.
